Experimental data as given in the Kinase Knowledgebase extract (Sharma et al. 2016).

How the values were obtained:
[1] = molecular target: EGFR (human) (UniProt P00533); conditions: a431
[2] = molecular target: EGFR (UniProt P00533)
Sequence of EGFR (P00533 whole entry, looked up): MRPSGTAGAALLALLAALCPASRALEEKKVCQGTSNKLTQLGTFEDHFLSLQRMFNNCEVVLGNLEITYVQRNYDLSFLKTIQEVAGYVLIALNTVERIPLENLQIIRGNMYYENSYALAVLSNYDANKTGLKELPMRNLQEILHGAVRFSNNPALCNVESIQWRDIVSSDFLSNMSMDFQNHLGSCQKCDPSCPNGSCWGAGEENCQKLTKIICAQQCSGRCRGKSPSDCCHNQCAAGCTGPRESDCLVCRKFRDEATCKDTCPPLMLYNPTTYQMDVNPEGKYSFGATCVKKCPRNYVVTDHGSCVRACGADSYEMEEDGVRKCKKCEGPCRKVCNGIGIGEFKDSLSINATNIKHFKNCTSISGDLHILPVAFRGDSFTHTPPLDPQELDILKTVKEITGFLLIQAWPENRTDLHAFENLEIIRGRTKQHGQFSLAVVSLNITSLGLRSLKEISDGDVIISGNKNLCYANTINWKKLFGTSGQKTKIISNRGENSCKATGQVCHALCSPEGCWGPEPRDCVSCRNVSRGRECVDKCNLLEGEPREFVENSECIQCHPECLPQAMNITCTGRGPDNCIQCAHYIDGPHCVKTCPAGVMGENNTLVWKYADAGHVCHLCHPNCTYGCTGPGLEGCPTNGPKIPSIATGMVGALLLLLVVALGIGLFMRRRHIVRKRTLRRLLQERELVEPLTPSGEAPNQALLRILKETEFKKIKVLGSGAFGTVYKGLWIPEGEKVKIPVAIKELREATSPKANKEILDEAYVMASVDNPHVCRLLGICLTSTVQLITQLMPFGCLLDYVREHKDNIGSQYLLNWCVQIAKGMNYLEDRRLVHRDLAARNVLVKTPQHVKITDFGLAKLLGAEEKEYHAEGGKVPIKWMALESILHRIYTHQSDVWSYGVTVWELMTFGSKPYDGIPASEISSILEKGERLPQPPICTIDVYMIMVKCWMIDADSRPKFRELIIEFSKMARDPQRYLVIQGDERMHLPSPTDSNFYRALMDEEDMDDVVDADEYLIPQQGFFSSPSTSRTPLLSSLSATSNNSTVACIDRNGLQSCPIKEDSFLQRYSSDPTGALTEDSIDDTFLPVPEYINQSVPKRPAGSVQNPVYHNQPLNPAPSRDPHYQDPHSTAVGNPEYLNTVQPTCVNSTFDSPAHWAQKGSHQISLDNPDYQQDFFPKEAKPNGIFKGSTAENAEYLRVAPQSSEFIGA

Sequence of EGFR (human) (P00533 whole entry, looked up): as above

Row | Structure (SMILES) | IC50 [1] | IC50 [2]
1 | COc1cc2nccc(Oc3ccc(C(=O)c4cccc(F)c4)cc3)c2cc1OC | 28 µM | –
2 | COc1cc2nccc(Oc3ccc(C(=O)c4ccc(OC(F)(F)F)cc4)cc3)c2cc1OC | > 100 µM | –
3 | COc1cc2nccc(Oc3cccc(F)c3)c2cc1OC | 24 µM | –
4 | COc1ccc(C(=O)Nc2ccc(Oc3ccnc4cc(OC)c(OC)cc34)cc2)cc1OC | > 100 µM | –
5 | COc1cc2nccc(Oc3ccc(NC(=O)c4ccco4)cc3)c2cc1OC | > 100 µM | –
6 | COc1cc2nccc(Oc3ccc(C(=O)c4ccc(Br)cc4)cc3)c2cc1OC | > 100 µM | –
7 | COc1cc2nccc(Oc3ccc(NC(C)=O)cc3)c2cc1OC | > 100 µM | –
8 | COc1cc2nccc(Oc3ccc(C(=O)c4ccc(C(C)(C)C)cc4)cc3)c2cc1OC | > 100 µM | > 100 µM
9 | COc1cccc(Oc2ccnc3cc(OC)c(OC)cc23)c1 | 18 µM | –
10 | COc1cc2nccc(Oc3ccc(NC(=O)C4CCCCC4)cc3)c2cc1OC | > 100 µM | –
11 | COc1cc2nccc(Oc3ccc(N)cc3)c2cc1OC | > 100 µM | –
12 | COc1cc2nccc(Oc3ccc(C(=O)c4ccc(-c5ccccc5)cc4)cc3)c2cc1OC | > 100 µM | –
13 | COc1cc2nccc(Oc3ccccc3OC)c2cc1OC | 92 µM | –
14 | COc1cc2nccc(Oc3ccccc3C(=O)c3ccccc3)c2cc1OC | 14 µM | –
15 | COc1cc2nccc(Oc3cccc(C(C)=O)c3)c2cc1OC | > 100 µM | –
16 | COc1cc2nccc(Oc3c(OC)cccc3OC)c2cc1OC | 81 µM | –

Row | Structure (SMILES) | IC50 [1] | IC50 [2]
17 | COc1cc2nccc(Oc3ccc(Br)cc3)c2cc1OC | 20 µM | –
18 | COc1cc2nccc(Oc3ccccc3)c2cc1OC | 50 µM | –
19 | COc1cc2nccc(Oc3ccc(NC(=O)c4ccc(C(C)=O)cc4)cc3)c2cc1OC | > 100 µM | –
20 | COc1cc2nccc(Oc3ccc(C(=O)c4ccc(Cl)c(Cl)c4)cc3)c2cc1OC | 31 µM | –
21 | COc1cc2nccc(Oc3ccc(C(=O)c4ccc(Cl)cc4)cc3)c2cc1OC | > 100 µM | –
22 | COc1cc2nccc(Oc3ccc(C(=O)c4ccccc4)cc3)c2cc1OC | 50 µM | –
23 | COc1cc2nccc(Oc3ccc(C(=O)c4ccc([N+](=O)[O-])cc4)cc3)c2cc1OC | > 100 µM | –
24 | COc1cc2nccc(Oc3ccc(C(=O)c4ccc(C)cc4)cc3)c2cc1OC | > 100 µM | –
25 | COc1cc2nccc(Oc3ccc(NC(=O)c4ccc(Br)cc4)cc3)c2cc1OC | 48 µM | –
26 | COc1cc2nccc(Oc3cccc(OC)c3OC)c2cc1OC | > 100 µM | –
27 | COc1cc2nccc(Oc3ccc(C(=O)c4ccccc4C(F)(F)F)cc3)c2cc1OC | 21 µM | –
28 | COc1cc2nccc(Oc3cccc(O)c3)c2cc1OC | 19 µM | –
29 | COc1cc2nccc(Oc3cccc(N)c3)c2cc1OC | 40 µM | –
30 | CCCCc1ccc(C(=O)c2ccc(Oc3ccnc4cc(OC)c(OC)cc34)cc2)cc1 | > 100 µM | –
31 | COc1cc2nccc(Oc3cccc([N+](=O)[O-])c3)c2cc1OC | 35 µM | –

The remaining lines, values ahead:

Row | IC50 [1] | IC50 [2] | Structure (SMILES)
32 | > 100 µM | – | CCCCc1ccc(C(=O)Nc2ccc(Oc3ccnc4cc(OC)c(OC)cc34)cc2)cc1
33 | 6 µM | – | COc1cc2nccc(Oc3ccc(N(C)C(=O)c4ccc(C(C)(C)C)cc4)cc3)c2cc1OC
34 | 0.65 µM | – | COc1cc2nccc(Oc3cccc(NC(=O)c4ccc(C(C)(C)C)cc4)c3)c2cc1OC
35 | > 100 µM | – | COC(=O)c1cccc(Oc2ccnc3cc(OC)c(OC)cc23)c1
36 | 16 µM | – | COc1cc2nccc(Oc3ccc(O)cc3)c2cc1OC
37 | 44 µM | – | COc1ccc(Oc2ccnc3cc(OC)c(OC)cc23)cc1
38 | > 100 µM | – | COc1cc2nccc(Oc3ccc(NC(=O)C4CCCC4)cc3)c2cc1OC
39 | 30 µM | – | COc1cc2nccc(Oc3ccc(C(=O)Nc4ccc(C(C)(C)C)cc4)cc3)c2cc1OC
40 | > 100 µM | – | COc1cc2nccc(Oc3ccc(C(=O)c4ccc(C#N)cc4)cc3)c2cc1OC
41 | 89 µM | – | COc1cc2nccc(Oc3cccc(C(=O)c4ccccc4)c3)c2cc1OC
42 | 49 µM | – | COc1cc(OC)cc(Oc2ccnc3cc(OC)c(OC)cc23)c1
43 | 95 µM | – | COc1cc2nccc(Oc3ccc(C(=O)c4cccc(C)c4)cc3)c2cc1OC
44 | > 100 µM | – | COc1cc2nccc(Oc3ccc(C(=O)c4cccc(C(F)(F)F)c4)cc3)c2cc1OC
45 | < 10 µM | – | COc1cc2nccc(Oc3ccccc3N)c2cc1OC
46 | > 100 µM | – | COc1cc2nccc(Oc3ccc(C(=O)C4CCCCC4)cc3)c2cc1OC
47 | > 100 µM | – | CCCCOc1ccc(C(=O)Nc2ccc(Oc3ccnc4cc(OC)c(OC)cc34)cc2)cc1
48 | > 100 µM | – | COc1cc2nccc(Oc3ccc(C(=O)c4ccc(C(F)(F)F)cc4)cc3)c2cc1OC
49 | 43 µM | – | COc1cc2nccc(Oc3ccc(C(=O)c4ccccc4C)cc3)c2cc1OC
50 | > 100 µM | – | COc1cc2nccc(Oc3ccc(NC(=O)c4cccs4)cc3)c2cc1OC
51 | 14 µM | – | COc1cc2nccc(Oc3cccc(C)c3)c2cc1OC
52 | > 100 µM | – | COc1cc2nccc(Oc3ccc(C(=O)c4ccc(I)cc4)cc3)c2cc1OC
53 | > 100 µM | – | COc1cc2nccc(Oc3ccc(C(=O)c4ccco4)cc3)c2cc1OC
54 | > 100 µM | – | COc1cc2nccc(Oc3ccc(NC(=O)c4ccc([N+](=O)[O-])cc4)cc3)c2cc1OC
55 | > 100 µM | – | COc1cc2nccc(Oc3ccc(NC(=O)c4ccc(-c5ccccc5)cc4)cc3)c2cc1OC
56 | 16 µM | – | COc1cc2nccc(Oc3ccc(C(=O)c4cccs4)cc3)c2cc1OC
57 | 75 µM | – | COc1cc2nccc(Oc3ccc(C(=O)c4ccc(F)cc4)cc3)c2cc1OC
58 | 93 µM | – | COc1cc2nccc(Oc3ccc(NC(=O)c4ccc(C(F)(F)F)cc4)cc3)c2cc1OC
59 | > 100 µM | – | COc1cc2nccc(Oc3ccc(C(C)=O)cc3)c2cc1OC
60 | > 100 µM | > 100 µM | COc1cc2nccc(Oc3ccc(NC(=O)c4ccc(C(C)(C)C)cc4)cc3)c2cc1OC
